Measurements as given in patent US20060069132A1, “Azolecarboxamide herbicides” (priority 2004, published 2006).

Assays:
[1] = tested on: barnyardgrass; assay: Test B flooded paddy test; type: in vivo, Echinochloa crus-galli; details: 1000 g ai/ha, scale 0 to 100 (0 no effect, 100 complete control)
Summary of the method: (§1)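 Treated at 2-leaf (paddy) or 1–4-leaf, 2–18 cm (postemergence); greenhouse 13–15 d; visual score vs control, 0 none to 100 complete control; dash = not tested.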

[2] = tested on: Surinam grass; assay: Test B pre-/postemergence herbicide test; type: in vivo, Urochloa decumbens; details: for Surinam Grass plant response rating: postemergence
Summary of the method: (§2)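 Formulation: non-phytotoxic solvent mix with surfactant. Timing: preemergence on seed and postemergence on 2–18 cm plants, applied concurrently. Readout after 13–15 d greenhouse: visual 0–100 control rating against controls.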

[3] = tested on: morningglory; assay: Test B pre-/postemergence herbicide test; type: in vivo, Ipomoea coccinea; details: for Morningglory plant response rating: postemergence
Summary of the method: (§3)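 Herbicidal effect was judged by eye on a 0–100 scale after plants stood 13 to 15 days in the greenhouse following pre- or postemergence treatment with surfactant-containing formulations.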

[4] = tested on: rice; assay: Test B pre-/postemergence herbicide test; type: in vivo, Oryza sativa; details: 0 = no effect, 100 = complete control, preemergence
Summary of the method: as §2

[5] = tested on: pigweed; assay: Test B pre-/postemergence herbicide test; type: in vivo, Amaranthus retroflexus; details: for Pigweed plant response rating: postemergence
Summary of the method: as §2

[6] = tested on: blackgrass; assay: Test B postemergence herbicide test; type: in vivo, Alopecurus myosuroides; details: postemergence, visual rating, scale 0 (no effect) to 100 (complete control)
Summary of the method: as §1

[7] = tested on: small flower umbrella sedge; assay: Test B flooded paddy test; type: in vivo, Cyperus difformis; details: 1000 g ai/ha, scale 0 to 100 (0 no effect, 100 complete control)
Summary of the method: as §1

[8] = tested on: barnyardgrass; assay: Test B pre-/postemergence herbicide test; type: in vivo, Echinochloa crus-galli; details: for Barnyardgrass plant response rating: postemergence, scale 0 (no effect) to 100 (complete control)
Summary of the method: as §3

[9] = tested on: giant foxtail; assay: Test B pre-/postemergence herbicide test; type: in vivo, Setaria faberi; details: for Foxtail, Giant plant response rating: postemergence
Summary of the method: as §2

[10] = tested on: corn; assay: Test B pre-/postemergence herbicide test; type: in vivo, Zea mays; details: for Corn plant response rating: postemergence
Summary of the method: as §2

[11] = tested on: ducksalad; assay: Test B flooded paddy test; type: in vivo, Heteranthera limosa; details: 1000 g ai/ha, scale 0 to 100 (0 no effect, 100 complete control)
Summary of the method: as §1

[12] = tested on: wheat; assay: Test B postemergence herbicide test; type: in vivo, Triticum aestivum; design: key to Wheat plant response rating: 0 = no effect, 100 = complete control; details: postemergence
Summary of the method: (§4)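 Visual ratings, 0 (no effect) to 100 (complete control), made versus controls after 13–15 d greenhouse. Paddy plants treated at 2-leaf stage; postemergence plants at 1- to 4-leaf stage, 2–18 cm tall.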

[13] = tested on: velvetleaf; assay: Test B pre-/postemergence herbicide test; type: in vivo, Abutilon theophrasti; details: for Velvetleaf plant response rating: postemergence
Summary of the method: as §2

[14] = tested on: rice; assay: Test B flooded paddy test; type: in vivo, Oryza sativa; details: 1000 g ai/ha, scale 0 to 100 (0 no effect, 100 complete control)
Summary of the method: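 Scale 0–100: zero equals no visible effect, 100 complete control, judged by eye relative to controls. Timing: 13 to 15 days in greenhouse post-treatment. Growth stage at spraying: two leaves (paddy) or one to four leaves, 2–18 cm (postemergence).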

[15] = tested on: wild oat; assay: Test B postemergence herbicide test; type: in vivo, Avena fatua; details: postemergence
Summary of the method: as §4

[16] = tested on: cocklebur; assay: Test B pre-/postemergence herbicide test; type: in vivo, Xanthium strumarium; details: for Cocklebur plant response rating: postemergence, scale 0 (no effect) to 100 (complete control)
Summary of the method: as §3

[17] = tested on: large crabgrass; assay: Test B pre-/postemergence herbicide test; type: in vivo, Digitaria sanguinalis; details: for Crabgrass, Large plant response rating: postemergence
Summary of the method: as §2

[18] = tested on: lambsquarters; assay: Test B pre-/postemergence herbicide test; type: in vivo, Chenopodium album; details: for Lambsquarters plant response rating: postemergence
Summary of the method: as §2

[19] = 125 g ai/ha, 0 = no effect, 100 = complete control, preemergence
[20] = 500 g ai/ha, visual rating, 0 = no effect, 100 = complete control, preemergence
[21] = 125 g ai/ha, visual rating, scale 0 (no effect) to 100 (complete control)
[22] = 500 g ai/ha, scale 0 to 100, 0 is no effect, 100 is complete control

In the case of CCn1nc(C(C)(C)C)cc1C(=O)Nc1cccc(C(=O)N(C)OC)n1 [Compound 246], the “Barnyardgrass plant response rating” value [1] is reported as 50, the “Surinam Grass plant response rating (0 to 100 scale)” value [2, 19] is reported as 30 and the “Plant response rating, Surinam Grass” value [2, 20] is reported as 80. The “Surinam Grass plant response rating” value [2, 21] was 20, the “Surinam Grass plant response rating” value [2, 22] was 20 and the “Morningglory plant response rating (0 to 100 scale)” value [3, 19] was 0. The “Plant response rating, Morningglory” value [3, 20] was 10, the “Morningglory plant response rating” value [3, 21] was 0 and the “Morningglory plant response rating” value [3, 22] was 10. The “Rice plant response rating (0 to 100 scale)” value ([4]; 125 g ai/ha) was 40, the “Plant response rating, Rice” value ([4]; 500 g ai/ha, visual rating) was 70 and the “Pigweed plant response rating (0 to 100 scale)” value [5, 19] was 100. The “Plant response rating, Pigweed” value [5, 20] was 100, the “Pigweed plant response rating” value [5, 21] was 50 and the “Pigweed plant response rating” value [5, 22] was 60. For the same compound, the “Blackgrass plant response rating” value ([6]; 125 g ai/ha) was 0, the “Blackgrass plant response rating” value ([6]; 500 g ai/ha) was 0 and the “Sedge, Umbrella plant response rating” value [7] was 50. The “Barnyardgrass plant response rating (0 to 100 scale)” value [8, 19] was 60, the “Plant response rating, Barnyardgrass” value [8, 20] was 90 and the “Barnyardgrass plant response rating” value ([8]; 125 g ai/ha, visual rating) was 30. The “Barnyardgrass plant response rating” value ([8]; 500 g ai/ha, visual rating) was 70, the “Foxtail, Giant plant response rating (0 to 100 scale)” value [9, 19] was 30 and the “Plant response rating, Foxtail, Giant” value [9, 20] was 90. The “Foxtail, Giant plant response rating” value [9, 21] was 30, the “Foxtail, Giant plant response rating” value [9, 22] was 30 and the “Corn plant response rating (0 to 100 scale)” value [10, 19] was 0. For the same compound, the “Plant response rating, Corn” value [10, 20] was 20, the “Corn plant response rating” value [10, 21] was 0 and the “Corn plant response rating” value [10, 22] was 10. The “Ducksalad plant response rating” value [11] was 50, the “Wheat plant response rating” value [12, 21] was 0 and the “Wheat plant response rating” value [12, 22] was 30. For the same compound, the “Velvetleaf plant response rating (0 to 100 scale)” value [13, 19] was 60, the “Plant response rating, Velvetleaf” value [13, 20] was 90 and the “Velvetleaf plant response rating” value [13, 21] was 30. For the same compound, the “Velvetleaf plant response rating” value [13, 22] was 60, the “Rice plant response rating” value [14] was 60 and the “Oat, Wild plant response rating” value [15, 21] was 10. For the same compound, the “Oat, Wild plant response rating” value [15, 22] was 20, the “Cocklebur plant response rating (0 to 100 scale)” value [16, 19] was 0 and the “Plant response rating, Cocklebur” value [16, 20] was 0. For the same compound, the “Cocklebur plant response rating” value ([16]; 125 g ai/ha, visual rating) was 20, the “Cocklebur plant response rating” value ([16]; 500 g ai/ha, visual rating) was 30 and the “Crabgrass, Large plant response rating (0 to 100 scale)” value [17, 19] was 70. For the same compound, the “Plant response rating, Crabgrass, Large” value [17, 20] was 100, the “Crabgrass, Large plant response rating” value [17, 21] was 10 and the “Crabgrass, Large plant response rating” value [17, 22] was 20. The “Lambsquarters plant response rating (0 to 100 scale)” value [18, 19] was 70, the “Plant response rating, Lambsquarters” value [18, 20] was 100 and the “Lambsquarters plant response rating” value [18, 21] was 50. For the same compound, the “Lambsquarters plant response rating” value [18, 22] was 70.
